Source: paper PMC10487436, “Towards Anticancer and Antibacterial Agents: Design and Synthesis of 1,2,3-Triazol-quinobenzothiazine Derivatives” (International Journal of Molecular Sciences, 2023)

How the values were obtained:
[1] = system: vancomycin-resistant E. faecalis VRE 342B; assay: MIC, microtitration broth method, VRE1; type: cell-based; settings: Enterococcus faecalis, 24 h at 37 °C
Experimental: (§1) In vitro antibacterial activity of the synthesized compounds was evaluated against representatives of multidrug-resistant bacteria, three clinical isolates of methicillin-resistant S. aureus: clinical isolates of animal origin, MRSA 63718 (Department of Infectious Diseases and Microbiology, Faculty of Veterinary Medicine, University of Veterinary Sciences Brno, Czech Republic), carrying the mecA gene; and MRSA SA 630 and MRSA SA 3202 [52] (National Institute of Public Health, Prague, Czech Republic), both of human origin. […] Vancomycin- and methicillin-susceptible S. aureus ATCC 29213 and vancomycin-susceptible Enterococcus faecalis ATCC 29212, obtained from the American Type Culture Collection, were used as the reference and quality control strains. Three vanA gene-carrying vancomycin-resistant isolates of E. faecalis (VRE 342B, VRE 368, VRE 725B) were provided by Oravcova et al..
(§2) The minimum inhibitory concentrations (MICs) were evaluated by the microtitration broth method according to the CLSI, with some modifications. The compounds were dissolved in DMSO (Sigma, St. Louis, MO, USA) to obtain a concentration of […] and diluted in a microtitration plate in an appropriate medium, i.e., Cation Adjusted Mueller–Hinton Broth (CaMH, Oxoid, Basingstoke, UK) for staphylococci, and Brain Heart Infusion Broth (BHI, Oxoid) for enterococci, to reach the final concentration of 256–0.125 µg/mL. Microtiter plates were inoculated with test micro-organisms so that the final concentration of bacterial cells was 10^5. […] A drug-free control and a sterility control were included. The plates were incubated for 24 h at 37 °C for staphylococci and enterococci. […] The experiments were repeated three times.

[2] = system: NHDF (normal human dermal fibroblasts); assay: WST-1 proliferation assay, NHDF; type: cell-based; settings: Homo sapiens, NHDF, normal cells, 72 h exposure
Experimental: (§3) Compounds were evaluated for their antiproliferative activity using three cultured cell lines: A549 (human lung carcinoma, ATCC, Manassas, VA, USA), SNB-19 (human glioblastoma, DSMZ, German Collection of Microorganisms and Cell Cultures), T-47D (human breast cancer, ATCC, Manassas, VA, USA), and NHDF (normal human dermal fibroblasts, ATCC, Manassas, VA, USA). The cultured cells were kept at 37 °C and 5% CO2. The cells were seeded (1 × 10^4 cells/well/100 μL DMEM supplemented with 10% FCS, streptomycin, and penicillin) using 96-well plates (corning). Cells were counted in a hemocytometer (Burker chamber) using a phase contrast Olympus IX50 microscope equipped with a Sony SSC-DC58 AP camera and an Olympus DP10 digital camera.
(§4) The antiproliferative effect of the compounds exerted on cancer and normal cells was determined using the Cell Proliferation Reagent WST-1 assay (Roche Molecular Biochemicals, Mannheim, Germany). This assay is based on a colorimetric method using the enzymatic ability of viable cells to cause the bright, red-colored stable tetrazolium monosodium salt [2-(4-iodophenyl)-3-(4-nitrophenyl)-5-(2,4-disulfophenyl)–2H-tetra-zolium] to transform into the dark, red-colored soluble formazan. […] An increase in the amount of formazan dye formed correlated with the number of metabolically active cells in the culture. The formazan dye produced by metabolically active cells was quantified by absorbance readings at appropriate wavelengths. The examined cells were exposed to the tested compounds (1 mM DMSO stock) for 72 h at various concentrations (0.1–100 μM). The control was performed in order to eliminate the DMSO effect at the concentration used. Cell cultures were incubated with WST-1 (10 μL) for 1 h. The absorbance of the samples was measured against a background control at 450 nm using a microplate reader with a reference wavelength at 600 nm. The obtained results are expressed as the means of at least two independent experiments performed in triplicate. The antiproliferative activity of the tested compounds was compared to that of cisplatinum. The values of IC50 (a concentration of a compound that is required for 50% inhibition) were calculated from the dose-response relationship with respect to control. The results were reported as the mean (±std) of three separate experiments.

[3] = system: Mycobacterium smegmatis ATCC 700084; assay: MBC, agar aliquot subculture method, MS; type: cell-based; settings: Mycolicibacterium smegmatis, ATCC700084
Experimental: (§5) For the above-mentioned strains/isolates, the agar aliquot subculture method was used as a test for bactericidal agents. After the MIC value determination, the inoculum was transferred to CaMH (Oxoid) for staphylococci, BHI (Oxoid) for enterococci, and Middlebrook 7H9 (Difco) for mycobacteria medium using a multipoint inoculator. As indicated above, the plates were incubated on a thermostat at 37 °C for the appropriate time for each micro-organism. The lowest concentration of test compound at which ≤5 colonies were obtained was then evaluated as MBC, corresponding to a 99.9% decrease in CFU relative to the original inoculum.

[4] = system: Enterococcus faecalis ATCC 29213; assay: MIC, microtitration broth method, EF; type: cell-based; settings: ATCC29213, 24 h at 37 °C
[5] = system: Mycobacterium marinum CAMP 5644; assay: MIC, broth dilution micro-method, MM; type: cell-based; settings: CAMP5644, 504 h, 21 days at 28 °C
[6] = system: methicillin-resistant S. aureus SA 3202; assay: MIC, microtitration broth method, MRSA1; type: cell-based; settings: Staphylococcus aureus; 24 h at 37 °C
Experimental: as §1, §2

[7] = system: vancomycin-resistant E. faecalis VRE 725B; assay: MIC, microtitration broth method, VRE3; type: cell-based; settings: Enterococcus faecalis, 24 h at 37 °C
Experimental: as §1, §2

[8] = system: methicillin-resistant S. aureus SA 630; assay: MIC, microtitration broth method, MRSA2; type: cell-based; settings: Staphylococcus aureus; 24 h at 37 °C
Experimental: as §1, §2

[9] = system: methicillin-resistant S. aureus 63718; assay: MBC, agar aliquot subculture method, MRSA3; type: cell-based; settings: Staphylococcus aureus
Experimental: as §5

[10] = system: A549 (human lung carcinoma); assay: WST-1 proliferation assay, A549; type: cell-based; settings: Homo sapiens, A549, 72 h exposure
Experimental: as §3, §4

[11] = system: Mycobacterium marinum CAMP 5644; assay: MBC, agar aliquot subculture method, MM; type: cell-based; settings: CAMP5644
Experimental: as §5

[12] = system: Mycobacterium smegmatis ATCC 700084; assay: MIC, broth dilution micro-method, MS; type: cell-based; settings: Mycolicibacterium smegmatis, ATCC700084, 72 h; 3 days at 37 °C
[13] = system: SNB-19 (human glioblastoma); assay: WST-1 proliferation assay, SNB-19; type: cell-based; settings: Homo sapiens, SNB-19, 72 h exposure
Experimental: as §3, §4

[14] = system: Staphylococcus aureus ATCC 29213; assay: MIC, microtitration broth method, SA; type: cell-based; settings: ATCC29213, 24 h at 37 °C
Experimental: as §1, §2

[15] = system: vancomycin-resistant E. faecalis VRE 368; assay: MIC, microtitration broth method, VRE2; type: cell-based; settings: Enterococcus faecalis, 24 h at 37 °C
Experimental: as §1, §2

[16] = system: T-47D (human breast cancer); assay: WST-1 proliferation assay, T47D; type: cell-based; settings: Homo sapiens, T47D, 72 h exposure
Experimental: as §3, §4

[17] = system: methicillin-resistant S. aureus 63718; assay: MIC, microtitration broth method, MRSA3; type: cell-based; settings: Staphylococcus aureus; 24 h at 37 °C
Experimental: as §1, §2

[18] = system: Mycobacterium smegmatis ATCC 700084; settings: 3 days

Structure (SMILES)	MIC [1] [µM]	MIC [4] [µM]	MIC [5] [µM]	MIC [6] [µM]	MIC [7] [µM]	MIC [8] [µM]	IC50 [10] [µM]	MIC [12] [µM]	IC50 [13] [µM]	MIC [14] [µM]	MIC [15] [µM]	IC50 [16] [µM]	MIC [17] [µM]	IC50 [2] [µM]	MBC [3] [µM]	MBC [9] [µM]	MBC [11] [µM]	further results
C=CCn1cc(COc2ccc3c(c2)Nc2c(c[n+](C)c4ccccc24)S3)nn1 [2b, 5-Methyl-10-(1-allyl-1H-1,2,3-triazol-4-yl)methoxy-12H-quino [3,4-b][1,4]benzothiazinium chloride]	> 524	> 524	65.5	> 524	524	> 524	1.8 ± 0.2	65.5	2.7 ± 0.4	524	> 524	5.3 ± 0.6	262	> 100	65.5	262	65.5	–
C=CCn1cc(COc2cccc3c2Nc2c(c[n+](C)c4ccccc24)S3)nn1 [2c, 5-Methyl-11-(1-allyl-1H-1,2,3-triazol-4-yl)methoxy-12H-quino [3,4-b][1,4]benzothiazinium chloride]	> 524	> 524	131	524	524	524	5.7 ± 0.9	65.5	4.1 ± 0.5	524	> 524	7.6 ± 0.4	524	> 100	65.5	–	131	–
C[n+]1cc2c(c3ccccc31)Nc1c(OCc3cn(Cc4ccccc4)nn3)cccc1S2 [2f, 5-Methyl-11-(1-benzyl-1H-1,2,3-triazol-4-yl)methoxy-12H-quino [3,4-b][1,4]benzothiazinium chloride]	> 524	> 524	65.5	> 524	> 524	> 524	11.5 ± 0.6	65.5	8.5 ± 0.5	> 524	> 524	20.5 ± 1.4	524	30.5 ± 2.1	65.5	–	65.5	–
C[n+]1cc2c(c3ccccc31)Nc1c(OCc3cn(Cc4ccc([N+](=O)[O-])cc4)nn3)cccc1S2 [2i, 5-Methyl-11-[1-(4-nitrobenzyl)-1H-1,2,3-triazol-4-yl]methoxy-12H-quino [3,4-b][1,4]benzothiazinium chloride]	> 524	> 524	131	524	524	524	9 ± 0.4	65.5	4.9 ± 0.3	524	> 524	2.8 ± 0.2	524	> 100	65.5	–	131	–

Now from value to molecule, other results behind:

MIC [1] [µM]	MIC [4] [µM]	MIC [5] [µM]	MIC [6] [µM]	MIC [7] [µM]	MIC [8] [µM]	IC50 [10] [µM]	MIC [12] [µM]	IC50 [13] [µM]	MIC [14] [µM]	MIC [15] [µM]	IC50 [16] [µM]	MIC [17] [µM]	Structure (SMILES)	IC50 [2] [µM]	MBC [3] [µM]	MBC [9] [µM]	MBC [11] [µM]	further results
> 524	> 524	32.7	> 524	> 524	> 524	14.3 ± 0.8	16.3	42.9 ± 1.8	> 524	> 524	15.4 ± 1.1	262	C[n+]1cc2c(c3ccccc31)Nc1cc(OCc3cn(-c4ccc(Cl)cc4)nn3)ccc1S2 [2n, 5-Methyl-10-(1-(4-chlorophenyl)-1H-1,2,3-triazol-4-yl)methoxy-12H-quino [3,4-b][1,4]benzothiazinium chloride]	> 100	16.3	262	32.7	Conc.: lowest multiple of MBC with at least 70% inhibition of respiratory activity ([18]; MTT): 1× MIC (1× MBC); Conc.: lowest multiple of MIC with at least 70% inhibition of respiratory activity ([18]; MTT): 1× MIC (1× MBC); viability of M. smegmatis at MIC value ([18]; Mycobacterium smegmatis): less than 70%; M. smegmatis Respiration Inhibition ([18]; at the concentration (lowest multiple of MIC with at least 70% inhibition)): 85.9%
–	–	–	–	–	–	> 100	–	> 100	–	–	> 100	–	C=CCn1cc(COc2ccccc2N)nn1 [5a, 1-allyl-4-(2-aminophenoxy)methyl-1H-1,2,3-triazole]	> 100	–	–	–	–
